We go through 66 molecules from patent US9624228B2, “Inhibitors of ERK and methods of use” (KURA ONCOLOGY, INC., priority 2013, dated 2017).

In the assay the target is ERK2 enzyme (Homo sapiens (Human), UniProt P28482). Kind of assay: Inhibition assay of ERK (Z'-LYTE kinase assay, Ser/Thr 3 peptide substrate). Conditions: In vitro, ERK2 enzyme 0.47 ng/μL, 100 μM ATP. The assay is classed as biochemical.
ERK2 enzyme, sequence (P28482 whole entry): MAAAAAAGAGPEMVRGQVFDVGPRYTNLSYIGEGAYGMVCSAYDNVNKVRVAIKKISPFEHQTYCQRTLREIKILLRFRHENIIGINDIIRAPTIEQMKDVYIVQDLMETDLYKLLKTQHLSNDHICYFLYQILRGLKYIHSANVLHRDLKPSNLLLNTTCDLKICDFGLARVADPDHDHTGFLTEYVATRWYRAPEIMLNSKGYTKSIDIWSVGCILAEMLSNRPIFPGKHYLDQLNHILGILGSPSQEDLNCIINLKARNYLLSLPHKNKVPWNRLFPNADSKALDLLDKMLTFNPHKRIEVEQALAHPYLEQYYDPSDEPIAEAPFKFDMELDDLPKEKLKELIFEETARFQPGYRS
In general, IC50 refers to the point on the concentration scale where inhibition reaches its midpoint. A lower IC50 goes with greater potency. Take `Cc1cc(-c2n[nH]c3cc4[nH]c(=O)c(C(O)c5ccccc5)cc4cc23)ccn1` (stereo not drawn) [Compound 221]: the IC50 is < 50 nM.

Turning to `Cc1cc(-c2n[nH]c3cc4c(cc23)CN([C@@H]2CN(CC(F)(F)F)C[C@H]2c2ccccc2)C(=O)N4)ccn1` [Compound 222], the IC50 lay within 50 to 250 nM.

As to `Cc1cc(-c2n[nH]c3cc4c(cc23)CN(C2CCC(F)(F)CC2)C(=O)N4)ccn1` [Compound 224], the IC50 is < 50 nM. With `Cc1cc(-c2n[nH]c3cc4c(cc23)CN(Cc2cc(F)cc(F)c2)C(=O)N4)cc(C)n1` [Compound 225] the figure was < 50 nM; with `Cc1cc(-c2n[nH]c3cc4c(cc23)CN(Cc2ccc(F)c(Cl)c2)C(=O)N4)cc(C)n1` [Compound 226], < 50 nM.

Turning to `Cc1cc(-c2n[nH]c3cc4c(cc23)CN(Cc2cccs2)C(=O)N4)cc(C)n1` [Compound 227], the IC50 was < 50 nM.

In the case of `Cc1cc(-c2n[nH]c3cc4c(cc23)CN(Cc2nc(C)c(C)s2)C(=O)N4)ccn1` [Compound 228], the IC50 was < 50 nM. With `Cc1cc(-c2n[nH]c3cc4c(cc23)CN(Cc2ccccc2)C(=O)N4)cc(C)n1` [Compound 229] the figure was < 50 nM. With `O=C1Nc2cc3[nH]nc(-c4ccc(N5CCOCC5)nc4)c3cc2CN1Cc1cccc(Cl)c1` [Compound 231] the figure was < 50 nM; with `Cc1cc(-c2n[nH]c3cc4c(cc23)CN(C2CCC(=O)N(Cc3ccccc3)C2)C(=O)N4)ccn1` (stereo not drawn) [Compound 232], < 50 nM; with `Cc1cc(-c2n[nH]c3cc4c(cc23)CN(Cc2ccc(C(F)(F)F)cc2)C(=O)N4)cc(C)n1` [Compound 233], < 50 nM. With `Cc1cc(-c2n[nH]c3cc4c(cc23)CN(C(C)c2nccs2)C(=O)N4)ccn1` (stereo not drawn) [Compound 234] the figure was < 50 nM. In the case of `Cn1nccc1-c1n[nH]c2cc3c(cc12)CN(Cc1cccc(Cl)c1)C(=O)N3` [Compound 235], the IC50 fell in the range of 50 to 250 nM. With `Cc1cc(-c2n[nH]c3cc4c(cc23)CN([C@@H]2CCCN(CC(O)C(C)(C)C)C2)C(=O)N4)ccn1` (stereo partly drawn) [Compound 236] the figure was 50 to 250 nM.

Turning to `Cc1cc(-c2n[nH]c3cc4c(cc23)CN([C@@H]2CCN(CC(F)(F)F)C2)C(=O)N4)cc(C)n1` [Compound 237], the half-maximal inhibitory concentration (IC50) was < 50 nM. In the case of `Cc1cc(-c2n[nH]c3cc4c(cc23)CN([C@@H]2CCCN(c3cccc(C)n3)C2)C(=O)N4)ccn1` [Compound 238], the IC50 lay within 50 to 250 nM. Take `Cc1cc(-c2n[nH]c3cc4c(cc23)CN(C2CCCC2)C(=O)N4)cc(C)n1` [Compound 239]: the IC50 is < 50 nM. As for `Cc1cc(-c2n[nH]c3cc4c(cc23)CN(Cc2cccc(C(F)(F)F)c2)C(=O)N4)ccn1` [Compound 240], the IC50 is < 50 nM. With `Cc1cc(-c2n[nH]c3cc4c(cc23)CN([C@@H]2CN(CC(F)(F)F)C[C@H]2c2ccccc2)C(=O)N4)cc(C)n1` [Compound 242] the figure was 50 to 250 nM; with `Cc1cc(-c2n[nH]c3cc4c(cc23)CN(C2CCC2)C(=O)N4)ccn1` [Compound 243], < 50 nM; with `Cc1cc(-c2n[nH]c3cc4c(cc23)CN([C@@H]2CCCN(CC(F)(F)F)C2)C(=O)N4)cc(C)n1` [Compound 244], < 50 nM. Turning to `Cc1cc(-c2n[nH]c3cc4c(cc23)CN([C@@H]2CCCN(Cc3ccc(C)s3)C2)C(=O)N4)ccn1` [Compound 245], the IC50 was < 50 nM. With `Cc1cc(-c2n[nH]c3cc4c(cc23)CN(Cc2nc(C)cs2)C(=O)N4)ccn1` [Compound 246] the figure was < 50 nM; with `Cc1cc(-c2n[nH]c3cc4c(cc23)CN([C@@H]2CCCN(C(C)C)C2)C(=O)N4)ccn1` [Compound 247], < 50 nM. Molecule `Cc1cc(-c2n[nH]c3cc4c(cc23)CN([C@@H]2CCN(c3cccc(Cl)c3)C2)C(=O)N4)ccn1` [Compound 249] registered a concentration for half-maximal inhibition (IC50) of 50 to 250 nM. With `Cc1cc(-c2n[nH]c3cc4c(cc23)CN(CC2CCOCC2)C(=O)N4)cc(C)n1` [Compound 250] the figure was < 50 nM.

Regarding `Cc1cc(-c2n[nH]c3cc4c(cc23)CN([C@@H]2CCCN(Cc3csc(C)c3)C2)C(=O)N4)ccn1` [Compound 251], the half-inhibitory concentration (IC50) is < 50 nM. With `Cc1cc(-c2n[nH]c3cc4c(cc23)CN([C@@H]2CCCN(Cc3ccsc3)C2)C(=O)N4)ccn1` [Compound 252] the figure was < 50 nM. With `Cc1cc(-c2n[nH]c3cc4c(cc23)CN(CC2CCC2)C(=O)N4)ccn1` [Compound 253] the figure was < 50 nM; with `Cc1cc(-c2n[nH]c3cc4c(cc23)CN([C@@H]2CCCN(Cc3cccs3)C2)C(=O)N4)ccn1` [Compound 254], < 50 nM. With `Cc1cc(-c2n[nH]c3cc4c(cc23)CN([C@@H]2CCN(C)C2)C(=O)N4)ccn1` [Compound 255] the figure was < 50 nM; with `CCN1CC[C@@H](N2Cc3cc4c(-c5ccnc(C)c5)n[nH]c4cc3NC2=O)C1` [Compound 256], < 50 nM. On to `Cc1cc(-c2n[nH]c3cc4c(cc23)CN([C@@H]2CCN(c3ccc(F)cn3)C2)C(=O)N4)ccn1` [Compound 257], for which the IC50 fell in the range of 50 to 250 nM. As to `Cc1cc(-c2n[nH]c3cc4c(cc23)CN(CC2CC2)C(=O)N4)ccn1` [Compound 258], the IC50 was < 50 nM. In the case of `Cn1cc(-c2n[nH]c3cc4c(cc23)CN([C@@H]2CCN(CC(F)(F)F)C2)C(=O)N4)cn1` [Compound 259], the IC50 was < 50 nM. With `CN(C)CCN1CCN(c2n[nH]c3cc4c(cc23)CN(Cc2ccc(F)c(Cl)c2)C(=O)N4)CC1` [Compound 260] the figure was 250 to 1000 nM; with `Cn1nccc1-c1n[nH]c2cc3c(cc12)CN([C@@H]1CCCN(Cc2ccccc2)C1)C(=O)N3` [Compound 261], < 50 nM. With `Cc1cc(-c2n[nH]c3cc4c(cc23)CN(C(C)C2CCOCC2)C(=O)N4)ccn1` (stereo not drawn) [Compound 262] the figure was < 50 nM; with `Cc1cc(-c2n[nH]c3cc4c(cc23)CN([C@@H]2CN(Cc3ccccc3)CC(F)(F)C2)C(=O)N4)ccn1` [Compound 263], 250 to 1000 nM.

Regarding `Cc1cc(-c2n[nH]c3cc4c(cc23)CN([C@H]2CN(Cc3ccccc3)CC(F)(F)C2)C(=O)N4)ccn1` [Compound 264], the IC50 is < 50 nM.

Turning to `Cn1nccc1-c1n[nH]c2cc3c(cc12)CN([C@@H]1CCN(CC(F)(F)F)C1)C(=O)N3` [Compound 265], the IC50 lay within 50 to 250 nM. With `Cc1cc(-c2n[nH]c3cc4[nH]c(=O)c(CC5CCCCC5)cc4cc23)ccn1` [Compound 266] the figure was < 50 nM; with `Cc1cc(-c2n[nH]c3cc4c(cc23)CN([C@@H]2CCN(C(C)C(F)(F)F)C2)C(=O)N4)ccn1` (stereo partly drawn) [Compound 267], < 50 nM; with `Cc1cc(-c2n[nH]c3cc4c(cc23)CN([C@@H]2CCN(C(C)C)C2)C(=O)N4)ccn1` [Compound 268], 50 to 250 nM. With `C=C(c1ccccc1)c1cc2cc3c(-c4ccnc(C)c4)n[nH]c3cc2[nH]c1=O` [Compound 269] the figure was < 50 nM; with `COc1cc(-c2n[nH]c3cc4c(cc23)CN([C@@H]2CCCN(Cc3ccccc3)C2)C(=O)N4)ccn1` [Compound 270], < 50 nM. With `COc1cc(-c2n[nH]c3cc4c(cc23)CN([C@@H]2CCCN(Cc3ccc(F)cc3F)C2)C(=O)N4)ccn1` [Compound 271] the figure was < 50 nM.

Consider `COc1ccc(-c2n[nH]c3cc4c(cc23)CN([C@@H]2CCCN(Cc3ccccc3)C2)C(=O)N4)cn1` [Compound 272], for which the 50% inhibitory concentration (IC50) was < 50 nM. With `COc1ccc(-c2n[nH]c3cc4c(cc23)CN([C@@H]2CCCN(Cc3ccc(F)cc3F)C2)C(=O)N4)cn1` [Compound 273] the figure was < 50 nM. With `Cc1ccc(-c2n[nH]c3cc4c(cc23)CN([C@@H]2CCN(CC(F)(F)F)C2)C(=O)N4)cn1` [Compound 274] the figure was < 50 nM; with `Cc1ccc(-c2n[nH]c3cc4c(cc23)CN([C@@H]2CCCN(Cc3ccccc3)C2)C(=O)N4)cn1` [Compound 275], < 50 nM. With `COc1ncc(-c2n[nH]c3cc4c(cc23)CN([C@@H]2CCN(CC(F)(F)F)C2)C(=O)N4)cn1` [Compound 276] the figure was < 50 nM.

Take `COc1ccc(-c2n[nH]c3cc4c(cc23)CN([C@@H]2CCN(CC(F)(F)F)C2)C(=O)N4)cn1` [Compound 277]: the IC50 was < 50 nM. Turning to `COc1ncc(-c2n[nH]c3cc4c(cc23)CN([C@@H]2CCCN(Cc3ccc(F)cc3F)C2)C(=O)N4)cn1` [Compound 280], the half-inhibitory concentration (IC50) was < 50 nM.

As to `Cn1cc(-c2n[nH]c3cc4c(cc23)CN([C@@H]2CCCN(Cc3ccc(F)cc3F)C2)C(=O)N4)cn1` [Compound 281], the IC50 is < 50 nM. With `Cc1ncc(-c2n[nH]c3cc4c(cc23)CN([C@@H]2CCN(CC(F)(F)F)C2)C(=O)N4)cn1` [Compound 282] the figure was < 50 nM. `Cc1cc(-c2n[nH]c3cc4c(cc23)CN(CCC2CC2)C(=O)N4)ccn1` [Compound 283]: the IC50 lay in the range of 50 to 250 nM.

On to `Cc1ccc(-c2n[nH]c3cc4c(cc23)CN([C@@H]2CCCN(Cc3ccc(F)cc3F)C2)C(=O)N4)cn1` [Compound 284], for which the concentration for half-maximal inhibition (IC50) was < 50 nM. With `Cn1cc(-c2n[nH]c3cc4c(cc23)CN([C@@H]2CCCN(Cc3ccccc3)C2)C(=O)N4)cn1` [Compound 285], the 50% inhibitory concentration (IC50) is < 50 nM. With `Cc1cc(-c2n[nH]c3cc4c(cc23)CN(C(C)c2nc(C)c(C)s2)C(=O)N4)ccn1` (stereo not drawn) [Compound 286] the figure was < 50 nM; with `Cc1cc(-c2n[nH]c3cc4[nH]c(=O)c([C@@H](C)c5ccc(F)cc5)cc4cc23)ccn1` [Compound 287], 50 to 250 nM; with `Cc1cc(-c2n[nH]c3cc4[nH]c(=O)c(C5CCCC5)cc4cc23)ccn1` [Compound 289], < 50 nM.

Turning to `Cc1cc(-c2n[nH]c3cc4c(cc23)CN([C@@H]2CCCN(Cc3ccc(F)s3)C2)C(=O)N4)ccn1` [Compound 290], the 50% inhibitory concentration (IC50) is < 50 nM. With `Cc1cc(-c2n[nH]c3cc4c(cc23)CN([C@@H]2CCCN(Cc3sccc3F)C2)C(=O)N4)ccn1` [Compound 291] the figure was < 50 nM; with `Cc1ncc(-c2n[nH]c3cc4c(cc23)CN([C@@H]2CCCN(Cc3ccccc3)C2)C(=O)N4)cn1` [Compound 292], < 50 nM; with `Cc1ncc(-c2n[nH]c3cc4c(cc23)CN([C@@H]2CCCN(Cc3ccc(F)cc3F)C2)C(=O)N4)cn1` [Compound 293], < 50 nM.
